Measurements reported in patent publication US8143031B2, “Production of N-acylated sulphur-containing amino acids with microorganisms having enhanced N-acyltransferase enzymatic activity” (Metabolic Explorer, priority 2008, dated 2012).

B1: Purified Protein: Purified methionine N-acyl transferase from E. coli, identified as YncA, a GCN5 related acyl transferase, SEQ ID NO: 1 (protein, listed as Escherichia coli)
chain: MSIRFARKADCAAIAEIYNHAVLYTAAIWNDQTVDADNRIAWFEARTLAGYPVLVSEENGVVTGYASFGDWRSFDGFRHTVEHSVYVHPDHQGKGLGRKLLSRLIDEARDCGKHVMVAGIESQNQASLHLHQSLGFVVTAQMPQVGTKFGRWLDLTFMQLQLDERTEPDAIG

Legend:
[1] = target: T1, YncA (Escherichia coli, UniProt P76112); experiment: DTNB-based substrate and acyl-donor specificity test of YncA; type: biochemical, E. coli; conditions: for % Activity (activity of YncA with respect to the co-substrate Acetyl-coA): Acetyl-coA = 100; for % Activity (activity with respect to the substrate methionine): methionine = 100; for Activity as substrate of YncA (in words): DTNB-based assay
T1 construct: The purified protein was identified as YncA, a GCN5 related acyl transferase; made in house; host or cells: Untagged endogenous activity purified chromatographically from broken cells; E. coli is inferred
Experimental: (§1) Methionine L-amino-acid-N-acyl transferase activity was followed in microtiter plates by monitoring the apparition of HS-CoA with DTNB. The reaction solution, to which the sample was added, contained 200 mM Tris-HCl, pH 9.0, […], 3 mM Acetyl-coA and 20 mM methionine. Formation of the DTNB-CoA complex was monitored at 408 nm using a μQuant microtiter plate reader (BioTek Instruments, Inc., USA).
The substrate specificity was tested using the DTNB-based assay (see above).

[2] = target: Pseudomonas PA4866 protein (Pseudomonas aeruginosa, UniProt Q9HUU7); conditions: cited from earlier work
[3] = compared with the L-isomer; cited from earlier work
[4] = compared with pure methionine; cited from earlier work
[5] = MNAT activity test in vitro of purification fractions (DTNB, acetyl-coA, methionine); type: biochemical, E. coli; conditions: purification steps
Experimental: as §1
˜3 g of dry weight cells were rinsed 3 times with extraction buffer (EB) (50 mM phosphate, pH 7.0, 50 μM PLP, 500 μM DTT) and suspended in 70 mL EB. Cells were broken by sonication using a Rosett cell with a Bandelin Sonoplus ultrasonic homogenizer (Bandelin Electronic, Germany) equipped with a UW2070 probe and a SH70G tip (6 burst, 30 s, 100% efficiency, 75 W). The crude extract was centrifuged (30 min, 12.000 g, 4° C.) and solid ammonium sulfate was added to the supernatant to a final concentration of 2.3 M, and incubated on ice for 30 min. The solution was centrifuged (15 min, 15.000 g, 4° C.) and the pellet suspended in 40 mL phosphate buffer (50 mM phosphate, pH 7.0). Solid ammonium sulfate was added to a final concentration of 1.5 M, and the solution was incubated on ice for 30 min and then centrifuged (15 min, 15.000 g, 4 C). […]

[6] = methionine as substrate, various acyl-donors
[7] = Acetyl-coA as acyl-donor, various substrates

Pseudomonas PA4866 protein, sequence (Q9HUU7 whole entry): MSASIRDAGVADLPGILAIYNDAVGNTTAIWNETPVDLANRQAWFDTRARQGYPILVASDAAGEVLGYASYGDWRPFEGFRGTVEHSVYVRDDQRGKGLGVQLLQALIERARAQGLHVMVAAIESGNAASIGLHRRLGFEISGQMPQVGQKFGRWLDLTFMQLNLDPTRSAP

Row | Molecule | % Activity (activity with respect to the substrate methionine) ([1]; Acetyl-coA as acyl-donor) [%] | Specific Activity [1, 7] [mUI/mg protein] | Activity as substrate of YncA (in words) [1] | also measured
1 | CC(=O)SCCNC(=O)CCNC(=O)[C@H](O)C(C)(C)COP(=O)(O)OP(=O)(O)OC[C@H]1O[C@@H](n2cnc3c(N)ncnc32)[C@H](O)[C@@H]1OP(=O)(O)O [Acetyl-coA] | – | – | – | Activity as acyl-donor of YncA (in words) ([1]; methionine as substrate): worked properly as an acyl donor; % Activity (activity of YncA with respect to the co-substrate Acetyl-coA) ([1]; methionine as substrate): 100%; Specific Activity [1, 6]: 745 mUI/mg protein
2 | NC(=O)C[C@H](N)C(=O)O [Asparagine] | 2.4 | 18 | Weak activities | –
3 | N[C@@H](CC(=O)O)C(=O)O [Aspartate] | 1 | – | – | –
4 | CCCC(=O)SCCNC(=O)CCNC(=O)[C@H](O)C(C)(C)COP(=O)(O)OP(=O)(O)OC[C@H]1O[C@@H](n2cnc3c(N)ncnc32)[C@H](O)[C@@H]1OP(=O)(O)O [Butyryl-coA] | – | – | – | Activity as acyl-donor of YncA (in words) ([1]; methionine as substrate): weak activities; % Activity (activity of YncA with respect to the co-substrate Acetyl-coA) ([1]; methionine as substrate): 17%; Specific Activity [1, 6]: 129 mUI/mg protein
5 | N[C@@H](CCC(=O)O)C(=O)O [Glutamate] | 0.6 | 4 | Weak activities | –
6 | NC(=O)CC[C@H](N)C(=O)O [Glutamine] | 1.4 | 10 | Weak activities | –
7 | NCCCC[C@H](N)C(=O)O [Lysine] | 1.6 | 12 | Weak activities | –
8 | CS(=O)(=O)CC[C@H](N)C(=O)O [Methionine sulfone] | 178.8 | 1332 | Strong activities | –
9 | C[S+]([O-])CC[C@H](N)C(=O)O (stereo partly drawn) [Methionine sulfoxide] | 147.6 | 1100 | Strong activities | –
10 | CS(=N)(=O)CC[C@H](N)C(=O)O (stereo partly drawn) [Methionine sulfoximine] | 166.9 | 1243 | Strong activities | –
11 | CSCC[C@H](N)C(=O)O [Methionine] | 100 | 745 | Strong activities | Acetylation by Pseudomonas PA4866 protein [2]: did not acetylate
12 | CSCC[C@@H](NC(C)=O)C(=O)O [N-acetyl-D-methionine] | – | – | – | Incorporation by animals [3]: not incorporated as well as its L-isomer
13 | CSCC[C@H](NC(C)=O)C(=O)O [NAM, N-acetyl-L-methionine] | – | – | – | Methionine-sparing value [4]: same methionine-sparing value as pure methionine
14 | CCC(=O)SCCNC(=O)CCNC(=O)[C@H](O)C(C)(C)COP(=O)(O)OP(=O)(O)OC[C@H]1O[C@@H](n2cnc3c(N)ncnc32)[C@H](O)[C@@H]1OP(=O)(O)O [Propionyl-coA] | – | – | – | Activity as acyl-donor of YncA (in words) ([1]; methionine as substrate): preferred acyl-donor; % Activity (activity of YncA with respect to the co-substrate Acetyl-coA) ([1]; methionine as substrate): 140%; Specific Activity [1, 6]: 1039 mUI/mg protein
15 | B1 | – | – | – | Specific Activity ([5]; methionine N-acyl transferase activity): 19689 mUI/mg prot; Activity ([5]; total methionine N-acyl transferase activity): 0.126 UI
